Laboratory results: US11839636B1, “Pharmaceutical composition based on plant raw materials: #2.1” (priority 2022, dated 2023)

Test system: malondialdehyde (MDA)
Assay: In vitro study of antioxidant effect (FeSO4-activated malondialdehyde in blood serum)
Type: biochemical
Details: 0.1 ml sample, 0.3 ml blood serum, FeSO4, 37° C. 15 min, MDA at 535 nm
Procedure: Three samples were examined to evaluate antioxidant effectiveness. […] Method: evaluation was done by determining the intermediate product of the lipid oxidation process, malondialdehyde (MDA). Amount of MDA increases under the influence of ferrous sulfate (FeSO4), this moment was used as a model for the activated oxidation process. Sequence of analysis: 0.1 ml of test sample, 1 μmol of ferrous sulfate solution was added to 0.3 ml of blood serum and incubated at 37° C. for 15 min. Then 3 ml of 3% orthophosphoric acid and 1 ml of 0.6% thiobaric acid were added to the incubation mixture. The mixture was placed on a boiling water bath for one hour. Then 4 ml of butanol was added. The obtained mixture was centrifuged for 10 minutes at 3000 rpm. In the obtained supernatant, the optical density (E) was determined on a spectrometer on a wavelength of 535 nm. MDA concentration (C) was determined by the formula C=E×84.5 μmol/L. The difference between the background concentration of MDA and iron activated was 100%, while the antioxidant activity of the samples was conditionally expressed in %.

With O=C(O)CN(CCN(CC(=O)O)CC(=O)O)CC(=O)O [Ethylenediaminetetraacetate] the “Relative Antioxidant Activity in %” value was 92%.
